# In US20230066011A1, “PYRROLOPYRIMIDINE DERIVATIVE, AND PHARMACEUTICAL COMPOSITION FOR PREVENTING OR TREATING PROTEIN KINASE-RELATED DISEASE COMPRISING SAME AS ACTIVE INGREDIENT” (VORONOI CO., LTD., priority 2019, published 2023):
# Columns and labels:
# LRRK2 = LRRK2 (Homo sapiens, UniProt Q5S007); test: LRRK2 enzyme inhibition, ADP-Glo kinase assay; format: biochemical; set-up: purchased Invitrogen PR8604B; conditions: ATP 10 μM
# In short: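 Purified human LRRK2 (25 ng) with 10 μM ATP and 0.2 μg substrate in 40 mM Tris-HCl pH 7.4, 20 mM MgCl2, 0.5 mg/mL BSA, 50 μM DTT, 2 h at 25° C. ADP-Glo luminescence; 12-point compound series from 50 μM final; IC50 relative to solvent control.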
# human GST-DYRK1A = biological target: T1, human GST-DYRK1A (Homo sapiens, UniProt Q13627); test: GST-DYRK1A enzyme inhibition, ADP-Glo kinase assay; format: biochemical; conditions: ATP 10 μM, GST-DYRK1A full length, read-out: DYRK1 IC50
# T1 construct: purified human GST-DYRK1A (full length, Thermo Scientifics) enzyme; purchased Thermo Scientifics
# In short: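 Full-length human GST-DYRK1A (10 ng) with 10 μM ATP and specific substrate in 40 mM Tris-HCl pH 7.4, 20 mM MgCl2, 0.5 mg/mL BSA, 50 μM DTT, 1 h at 25 °C. ADP formation read by ADP-Glo luminescence relative to solvent control; IC50 from three data sets.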
# human DYRK1A and tau = test: Inhibition of tau phosphorylation, ClariCELL Kinase Cell-Based Assay, HEK 293 cells expressing human DYRK1A and tau; conditions: for inhibition at 1 µM: HEK293, read-out: % inhibition at 1 uM, tau phosphorylation, compound 1 uM; for inhibition at 0.25 µM / inhibition at 0.5 µM: HEK293, tau phosphorylation; for inhibition at 0.25 µM: compound 0.25 uM; for inhibition at 0.5 µM: compound 0.5 uM
# In short: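 Cell-based service assay: HEK 293 cells transiently expressing human DYRK1A and tau were treated with compound and lysed. Released tau was plate-captured and its phosphorylation quantified by ELISA with a phospho-tau-specific antibody.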
# Sequence of LRRK2 (Q5S007 970-2527 limits assumed): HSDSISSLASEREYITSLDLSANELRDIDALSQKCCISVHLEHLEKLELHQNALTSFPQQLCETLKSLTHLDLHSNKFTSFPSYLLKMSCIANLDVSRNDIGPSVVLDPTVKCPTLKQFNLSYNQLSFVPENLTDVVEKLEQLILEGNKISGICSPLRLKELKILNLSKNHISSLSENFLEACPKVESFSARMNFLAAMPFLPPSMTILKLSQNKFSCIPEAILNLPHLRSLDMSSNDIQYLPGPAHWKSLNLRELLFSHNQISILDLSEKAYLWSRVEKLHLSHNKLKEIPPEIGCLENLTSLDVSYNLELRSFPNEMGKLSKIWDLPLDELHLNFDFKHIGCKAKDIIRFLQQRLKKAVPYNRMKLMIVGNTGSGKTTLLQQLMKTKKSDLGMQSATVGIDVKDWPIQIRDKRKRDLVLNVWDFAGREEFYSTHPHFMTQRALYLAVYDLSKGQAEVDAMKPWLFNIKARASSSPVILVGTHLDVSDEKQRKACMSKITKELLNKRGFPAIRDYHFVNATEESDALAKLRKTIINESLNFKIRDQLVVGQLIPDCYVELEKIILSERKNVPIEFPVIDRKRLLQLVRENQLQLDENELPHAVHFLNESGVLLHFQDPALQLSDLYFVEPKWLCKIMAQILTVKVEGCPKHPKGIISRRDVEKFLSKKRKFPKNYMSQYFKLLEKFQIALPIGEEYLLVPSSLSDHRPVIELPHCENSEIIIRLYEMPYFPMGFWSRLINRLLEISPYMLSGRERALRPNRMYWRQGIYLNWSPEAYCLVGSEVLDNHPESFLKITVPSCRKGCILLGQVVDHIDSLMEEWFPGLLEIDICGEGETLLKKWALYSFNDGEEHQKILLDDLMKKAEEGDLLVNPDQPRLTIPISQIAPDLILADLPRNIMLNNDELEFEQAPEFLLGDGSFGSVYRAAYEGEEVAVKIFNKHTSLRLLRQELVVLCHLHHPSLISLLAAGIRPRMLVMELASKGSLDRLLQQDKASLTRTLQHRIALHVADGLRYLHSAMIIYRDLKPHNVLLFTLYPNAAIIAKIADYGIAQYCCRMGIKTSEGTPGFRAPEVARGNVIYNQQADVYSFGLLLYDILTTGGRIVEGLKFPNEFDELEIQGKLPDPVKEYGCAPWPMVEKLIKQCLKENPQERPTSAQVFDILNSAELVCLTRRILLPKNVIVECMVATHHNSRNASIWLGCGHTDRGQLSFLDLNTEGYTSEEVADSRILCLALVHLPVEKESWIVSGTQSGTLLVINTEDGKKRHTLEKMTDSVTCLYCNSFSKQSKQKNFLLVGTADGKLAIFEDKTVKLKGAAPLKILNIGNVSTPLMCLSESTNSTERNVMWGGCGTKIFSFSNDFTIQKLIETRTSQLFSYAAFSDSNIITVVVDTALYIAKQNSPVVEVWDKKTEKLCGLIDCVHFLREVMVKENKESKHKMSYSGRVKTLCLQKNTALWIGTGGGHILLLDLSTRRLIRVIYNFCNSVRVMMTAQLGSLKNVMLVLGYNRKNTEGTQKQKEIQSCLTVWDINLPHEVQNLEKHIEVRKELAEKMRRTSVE
IC50 (LRRK2) [nM],IC50 (human GST-DYRK1A) [nM],Compound,inhibition at 1 µM (human DYRK1A and tau) [%],inhibition at 0.25 µM (human DYRK1A and tau) [%],inhibition at 0.5 µM (human DYRK1A and tau) [%]
< 100,301 to 1000,"N#Cc1c[nH]c2nc(Nc3ccc(C(=O)N4CCOCC4)c4c3OCCO4)nc(NCC3CCCC3)c12 [Example 133, 4-((cyclopentylmethyl)amino)-2-((8-(morpholine-4-carbonyl)-2,3-dihydrobenzo[b][1,4]dioxin-5-yl)amino)-7H-pyrrolo[2,3-d]pyrimidine-5-carbonitrile]",–,–,–
< 100,101 to 300,"CCCNc1nc(Nc2ccc(C(=O)N3CCC(N4CCOCC4)CC3)c3c2OCCO3)nc2[nH]cc(C#N)c12 [Example 138, 2-((8-(4-morpholinopiperidine-1-carbonyl)-2,3-dihydrobenzo[b][1,4]dioxin-5-yl)amino)-4-(propylamino)-7H-pyrrolo[2,3-d]pyrimidine-5-carbonitrile]",–,–,–
–,< 100,"CNc1nc(Nc2ccc(S(=O)(=O)N3CCC(N4CCOCC4)CC3)cc2OC)nc2[nH]cc(C(F)(F)F)c12 [Example 157, N^2-(2-methoxy-4-((4-morpholinopiperidin-1-yl)sulfonyl)phenyl)-N^4-methyl-5-(trifluoromethyl)-7H-pyrrolo[2,3-d]pyrimidine-2,4-diamine 2,2,2-trifluoroacetate]",83.9,41.2,71
< 100,< 100,"N#Cc1c[nH]c2nc(Nc3ccc(C(=O)N4CCC(N5CCOCC5)CC4)c4c3OCCO4)nc(C3CC3)c12 [Example 221, 4-cyclopropyl-2-((8-(4-morpholinopiperidine-1-carbonyl)-2,3-dihydrobenzo[b][1,4]dioxin-5-yl)amino)-7H-pyrrolo[2,3-d]pyrimidine-5-carbonitrile]",–,–,–
101 to 300,–,"COc1cc(S(=O)(=O)N2CCOCC2)ccc1Nc1nc(C2CC2)c2c(C#N)c[nH]c2n1 [Example 223, 4-cyclopropyl-2-((2-methoxy-4-(morpholinosulfonyl)phenyl)amino)-7H-pyrrolo[2,3-d]pyrimidine-5-carbonitrile]",–,–,–
101 to 300,–,COc1cc(S(=O)(=O)N2CCC(N3CCOCC3)CC2)ccc1Nc1nc(C2CC2)c2c(C(F)(F)F)c[nH]c2n1 [Example 226],–,–,–
–,101 to 300,"CNc1nc(Nc2cc(F)c(S(=O)(=O)N3CCC(N4CCOCC4)CC3)cc2OC)nc2[nH]cc(C(F)(F)F)c12 [Example 231, N^2-(5-fluoro-2-methoxy-4-((4-morpholinopiperidin-1-yl)sulfonyl)phenyl)-N^4-methyl-5-(trifluoromethyl)-7H-pyrrolo[2,3-d]pyrimidine-2,4-diamine]",–,–,–
–,301 to 1000,"CCNc1nc(Nc2cc(F)c(S(=O)(=O)N3CCC(N4CCOCC4)CC3)cc2OC)nc2[nH]cc(C(F)(F)F)c12 [Example 232, N^4-ethyl-N^2-(5-fluoro-2-methoxy-4-((4-morpholinopiperidin-1-yl)sulfonyl)phenyl)-5-(trifluoromethyl)-7H-pyrrolo[2,3-d]pyrimidine-2,4-diamine]",–,–,–
< 100,< 100,"CNc1nc(Nc2ccc(C(=O)N3CCC(N4CCOCC4)CC3)c3c2OCCO3)nc2[nH]cc(C(F)(F)F)c12 [Example 238, (8-((4-(methylamino)-5-(trifluoromethyl)-7H-pyrrolo[2,3-d]pyrimidin-2-yl)amino)-2,3-dihydrobenzo[b][1,4]dioxin-5-yl)(4-morpholinopiperidin-1-yl)methanone]",–,–,–
< 100,–,CCN1CCP(=O)(c2ccc(Nc3nc(C4CC4)c4c(C#N)c[nH]c4n3)c(OC)c2)CC1 [Example 261],–,–,–
–,< 100,"COCCNc1nc(Nc2ccc(C(=O)N3CCC(N4CCOCC4)CC3)c3c2OCC3)nc2[nH]cc(C#N)c12 [Example 359, 4-((2-methoxy-ethyl)ami-no)-2-((4-(4-morpholino-piperidine-1-carbonyl)-2,3-dihydro-benzofuran-7-yl)amino)-7H-pyrrolo[2,3-d]pyrimidine-5-carbonitrile]",55.9,23.4,42.8
< 100,301 to 1000,"C=CCNc1nc(Nc2ccc(S(=O)(=O)N3CCC(N4CCOCC4)CC3)cc2OC)nc2[nH]cc(C#N)c12 [Example 361, 4-(allylamino)-2-((2-methoxy-4-((4-morpholino-piperidin-1-yl)sulfonyl)phenyl)amino)-7H-pyrrolo[2,3-d]pyrimidine-5-carbonitrile]",–,–,–
–,< 100,"CCNc1nc(Nc2ccc(C(=O)N3CCN(C4COC4)CC3)c3c2OCCO3)nc2[nH]cc(C(F)(F)F)c12 [Example 400, (8-((4-(ethylamino)-5-(trifluoromethyl)-7H-pyrrolo[2,3-d]pyrimidin-2-yl)amino)-2,3-dihydrobenzo[b] [1,4]dioxin-5-yl) (4-(oxetan-3-yl)piperazin-1-yl)methanone]",69.4,22.3,46.5
< 100,< 100,"COCCNc1nc(Nc2ccc(C(=O)N3CCN(C4COC4)CC3)c3c2OCCO3)nc2[nH]cc(C(F)(F)F)c12 [Example 403, (8-((4-((2-methoxyethyl)-amino)-5-(trifluoromethyl)-7H-pyrrolo[2,3-d]pyrimidin-2-yl)amino)-2,3-dihydrobenzo[b] [1,4]dioxin-5-yl) (4-(oxetan-3-yl)piperazin-1-yl)methanone]",–,–,–
–,301 to 1000,COc1cc(P2(=O)CCN(C3CC3)CC2)ccc1Nc1nc(NC2CCCC2)c2c(C(F)(F)F)c[nH]c2n1 [Example 413],–,–,–
< 100,< 100,"O=C(c1ccc(Nc2nc(NC3CCCC3)c3c(C(F)(F)F)c[nH]c3n2)c2c1OCCO2)N1CCN(C2COC2)CC1 [Example 414, (8-((4-(cyclopentyl-amino)-5-(trifluoromethyl)-7H-pyrrolo[2,3-d]pyrimidin-2-yl)amino)-2,3-dihydrobenzo[b] [1,4]dioxin-5-yl) (4-(oxetan-3-yl)piperazin-1-yl)methanone]",–,–,–
–,301 to 1000,"O=C(c1ccc(Nc2nc(NC3CCCCC3)c3c(C(F)(F)F)c[nH]c3n2)c2c1OCCO2)N1CCN(C2COC2)CC1 [Example 415, (8-((4-(cyclo-hexylamino)-5-(trifluoromethyl)-7H-pyrrolo[2,3-d]pyrimidin-2-yl)amino)-2,3-dihydrobenzo[b] [1,4]dioxin-5-yl) (4-(oxetan-3-yl)piperazin-1-yl)methanone]",–,–,–
< 100,< 100,"COCCNc1nc(Nc2ccc(C(=O)N3CCC(N4CCOCC4)CC3)c3c2OCC3)nc2[nH]cc(C(F)(F)F)c12 [Example 443, (7-((4-((2-methoxyethyl)amino)-5-(trifluoromethyl)-7H-pyrrolo[2,3-d]pyrimidin-2-yl)amino)-2,3-dihydrobenzo-furan-4-yl)(4-morpho-linopiperidin-1-yl)methanone]",–,–,–
–,–,"COc1cc(S(=O)(=O)N2CCC(N3C[C@H]4C[C@@H]3CO4)CC2)ccc1Nc1nc(C2CC2)c2c(C(F)(F)F)c[nH]c2n1 [Example 473, N-(4-((4-((1R,4R)-2-oxa-5-azabicyclo[2.2.1]heptan-5-yl)piperidin-1-yl)sulfonyl)-2-methoxyphenyl)-4-cyclopropyl-5-(trifluoromethyl)-7H-pyrrolo[2,3-d]pyrimidin-2-amine]",73.3,16.3,35.8
